# Data reported in PMC13415951 (Journal of Experimental Botany, 2026).
# How the values were obtained:
# [1] = biological target: T1, OsUGT79 H122A/L123A/Q202A (Oryza sativa subsp. japonica, UniProt Q7XT97, H122A/L123A/Q202A); experiment: biochemical; assay type: biochemical
# T1 sequence (Q7XT97 1-466 H122A/L123A/Q202A): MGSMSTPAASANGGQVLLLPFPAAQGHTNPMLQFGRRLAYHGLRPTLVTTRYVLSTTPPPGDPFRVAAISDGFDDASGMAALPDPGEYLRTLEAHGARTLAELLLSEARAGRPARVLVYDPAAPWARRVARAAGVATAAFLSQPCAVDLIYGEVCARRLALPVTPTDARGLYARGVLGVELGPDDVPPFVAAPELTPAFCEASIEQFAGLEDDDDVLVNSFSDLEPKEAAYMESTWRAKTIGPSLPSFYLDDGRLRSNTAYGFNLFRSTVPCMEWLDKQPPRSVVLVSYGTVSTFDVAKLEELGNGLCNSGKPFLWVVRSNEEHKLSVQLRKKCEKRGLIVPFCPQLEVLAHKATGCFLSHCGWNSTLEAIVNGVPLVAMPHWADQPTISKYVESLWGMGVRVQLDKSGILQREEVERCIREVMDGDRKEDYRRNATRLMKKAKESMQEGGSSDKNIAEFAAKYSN
# [2] = system: roots of wheat cultivar Apogee seedlings; experiment: Extracts from wheat roots exposed to mycotoxin, LC-MS/MS; assay type: in vivo, Triticum aestivum; conditions: 24 h
# Protocol: (§1) Seedlings of Apogee and B. distachyon with roots 1–2 cm long were incubated in full-strength MS without sucrose and containing 50 mg l^−1 DON and/or either 50 mg l^−1 CUL (Apogee) or 10 mg l^−1 CUL (B. distachyon). The seedlings were placed into sterile 2 ml tubes containing 500 µl medium such that only the roots were submerged. After 24 h incubation under the same conditions as specified above for the elongation assays, the roots were cut from the seedlings, washed with 10% ethanol, briefly dried with tissue paper, and weighed. The roots were then ground in the Retsch Ball Mill MM 400 for 1 min at 30× s^−1 using two 5 mm steel balls, after which 500 µl methanol was added and the roots were extracted for 2 h at room temperature. The concentrations of DON, D3G, CUL, and CUL-glucosides were determined by LC-MS/MS.
# DON, D3G, CUL, and CUL-glucosides were measured on a 6500+ QTrap MS/MS instrument (Sciex) coupled to an Agilent 1290 UHPLC system. A Kinetex C18 column (150×2.1 mm, 2.6 µm particle size; Phenomenex, Torrance, USA) was used for separation at 30 °C. […] DON and D3G were detected in negative ion mode first, and after 4.5 min the polarity was changed to positive electrospray mode to detect CUL and CUL-glucosides. […] D3G was determined with the [M+CH3COO]^− ion as the precursor (DP −80 V) with the following SRM settings: m/z 517.2 > 427.1 (CE −30 eV) and m/z 517.2 > 59.1 (CE −85 eV). […]
# [3] = system: roots of Brachypodium distachyon seedlings; experiment: Extracts from B. distachyon roots exposed to mycotoxin, LC-MS/MS; assay type: in vivo; conditions: 24 h; for D3G synthesis in the presence of CUL: 50 mg l^−1 DON, 10 mg l^−1 CUL
# Protocol: as §1
# DON, D3G, CUL, and CUL-glucosides were measured on a 6500+ QTrap MS/MS instrument (Sciex) coupled to an Agilent 1290 UHPLC system. A Kinetex C18 column (150×2.1 mm, 2.6 µm particle size; Phenomenex, Torrance, USA) was used for separation at 30 °C. Mobile phases consisted of mixtures of methanol and water (A, 10% MeOH; B, 97% MeOH) and both contained 5 mM ammonium acetate. A flow rate of 250 µl min^–1 and an injection volume of 1 µl were chosen. The gradient started with 0% B for 1.0 min and then increased linearly to 100% B at 8.5 min. The column was rinsed with 100% B for 3 min, before equilibration with the start conditions for another 3 min until the end of the run at 14.5 min. The switching valve of the mass spectrometer directed the eluent into the ion source between 3.0 min and 11.0 min. […] DON and D3G were detected in negative ion mode first, and after 4.5 min the polarity was changed to positive electrospray mode to detect CUL and CUL-glucosides. […] D3G was determined with the [M+CH3COO]^− ion as the precursor (DP −80 V) with the following SRM settings: m/z 517.2 > 427.1 (CE −30 eV) and m/z 517.2 > 59.1 (CE −85 eV). […]
smiles,measurement,setting,value
"CC1(C)CCC[C@]2(C)[C@@H]3[C@H]1[C@@H](O)[C@@]2(C)C[C@H]3O [CUL, culmorin]","K iu of CUL (uncompetitive inhibition, DON as variable substrate)",[1],217 µM
same,Ki,[1],65 µM
same,Effect of CUL on DON uptake by the roots,[2]; 50 mg l^−1 DON with 50 mg l^−1 CUL,did not inhibit DON uptake
same,Reduction in the D3G concentration in the roots caused by CUL,[2]; 50 mg l^−1 DON with 50 mg l^−1 CUL vs DON alone,~6 fold
same,inhibition at 10 µg/mL,"[3]; Brachypodium distachyon, OE-10R14 roots, 50 mg l^−1 DON with 10 mg l^−1 CUL, read-out: Reduction of D3G synthesis in the presence of CUL",~58.6%
same,D3G synthesis in the presence of CUL,[3]; TILLING line 6829-3 (wild-type BdUGT5g03300 allele),suppressed
same,D3G synthesis in the presence of CUL,[3]; TILLING mutant 6829-7 (BdUGT5g03300 W345*),not further reduced
